Legend:
Test in all cases: relative viability (nuclei count vs DMSO), 5 days (fraction); higher = more cells survive
Nelarabine + Pictilisib = compound: COc1nc(N)nc2c1ncn2[C@@H]1O[C@H](CO)[C@@H](O)[C@@H]1O [Nelarabine] + CS(=O)(=O)N1CCN(Cc2cc3nc(-c4cccc5[nH]ncc45)nc(N4CCOCC4)c3s2)CC1 [Pictilisib] (partner 1 µM)
How it was run: (§1)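 Cells from lung cancer lines were seeded into 1536-well plates and, one day later, dosed by pin tool. Treatments were either a single drug or a fixed dose of an anchor drug with five library-drug doses (not always all listed) in √10 steps. After 5 days, nuclei were stained in a one-step fixation (final 0.05% Triton X-100, 1% formaldehyde, 1 ug/ml Hoechst) and counted on 4× images, and relative viability is the treated-to-vehicle nuclei ratio, as the median of duplicate plates.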

Nelarabine + Olaparib = compound: COc1nc(N)nc2c1ncn2[C@@H]1O[C@H](CO)[C@@H](O)[C@@H]1O [Nelarabine] + O=C(c1cc(Cc2n[nH]c(=O)c3ccccc23)ccc1F)N1CCN(C(=O)C2CC2)CC1 [Olaparib] (partner 8 µM)
How it was run: as §1

Adavosertib + Luminespib = compound: C=CCn1c(=O)c2cnc(Nc3ccc(N4CCN(C)CC4)cc3)nc2n1-c1cccc(C(C)(C)O)n1 [Adavosertib] + CCNC(=O)c1noc(-c2cc(C(C)C)c(O)cc2O)c1-c1ccc(CN2CCOCC2)cc1 [Luminespib] (partner 0.01 µM)
How it was run: as §1

Adavosertib + Vorinostat = compound: C=CCn1c(=O)c2cnc(Nc3ccc(N4CCN(C)CC4)cc3)nc2n1-c1cccc(C(C)(C)O)n1 [Adavosertib] + O=C(CCCCCCC(=O)Nc1ccccc1)NO [Vorinostat] (partner 1 µM)
How it was run: as §1

With EMC-BAC-2 the relative viability (Nelarabine + Pictilisib; first compound 0.01 µM) was 0.548, the relative viability (Nelarabine + Pictilisib; first compound 0.03162 µM) was 0.544 and the relative viability (Nelarabine + Pictilisib; first compound 0.1 µM) was 0.543. The relative viability (Nelarabine + Pictilisib; first compound 0.3162 µM) was 0.558, the relative viability (Nelarabine + Pictilisib; first compound 1 µM) was 0.542 and the relative viability (Nelarabine + Olaparib; first compound 0.01 µM) was 0.538. The relative viability (Nelarabine + Olaparib; first compound 0.03162 µM) was 0.432, the relative viability (Nelarabine + Olaparib; first compound 0.1 µM) was 0.486 and the relative viability (Nelarabine + Olaparib; first compound 0.3162 µM) was 0.529. For the same cell line, the relative viability (Nelarabine + Olaparib; first compound 1 µM) was 0.553, the relative viability (Adavosertib + Luminespib; first compound 0.01 µM) was 1.14 and the relative viability (Adavosertib + Luminespib; first compound 0.03162 µM) was 1.25. The relative viability (Adavosertib + Luminespib; first compound 0.1 µM) was 1.18, the relative viability (Adavosertib + Luminespib; first compound 0.3162 µM) was 1.11 and the relative viability (Adavosertib + Vorinostat; first compound 0.03162 µM) was 0.536. The relative viability (Adavosertib + Vorinostat; first compound 0.1 µM) was 0.431 and the relative viability (Adavosertib + Vorinostat; first compound 0.3162 µM) was 0.396.

From the supplement of paper PMC10307832
